Results published in BigSolDB 2.1.

Oc1c(Cl)cc(Cl)c2cccnc12
solubility (mole fraction)
Conditions	293.15 K	298.15 K	303.15 K	308.15 K	313.15 K	318.15 K	323.15 K	328.15 K	333.15 K
in 1,4-dioxane	0.00523	0.0062	0.00736	0.0089	0.0106	0.0123	0.0146	0.017	0.0193
in DMF	0.0132	0.016	0.0194	0.024	0.0294	0.0347	0.0408	0.0478	0.0555
in DMSO	0.00296	0.00378	0.0048	0.00633	0.00793	0.00997	0.0123	0.0154	0.0188
in NMP	0.00576	0.00683	0.00823	0.00963	0.0113	0.0137	0.0162	0.0188	0.022
in water	1.02e-06	1.48e-06	2.03e-06	2.82e-06	3.82e-06	5e-06	6.86e-06	8.91e-06	1.15e-05
